One data set deals with T1, PTHR-delNt (Homo sapiens, UniProt Q03431, DEL24-181).
T1 construct: expressed in transfected cells; host or cells: COS-7 cells, transient co-transfection; membranes prepared
T1 sequence (Q03431 with tags, fused parts or gaps DEL24-181): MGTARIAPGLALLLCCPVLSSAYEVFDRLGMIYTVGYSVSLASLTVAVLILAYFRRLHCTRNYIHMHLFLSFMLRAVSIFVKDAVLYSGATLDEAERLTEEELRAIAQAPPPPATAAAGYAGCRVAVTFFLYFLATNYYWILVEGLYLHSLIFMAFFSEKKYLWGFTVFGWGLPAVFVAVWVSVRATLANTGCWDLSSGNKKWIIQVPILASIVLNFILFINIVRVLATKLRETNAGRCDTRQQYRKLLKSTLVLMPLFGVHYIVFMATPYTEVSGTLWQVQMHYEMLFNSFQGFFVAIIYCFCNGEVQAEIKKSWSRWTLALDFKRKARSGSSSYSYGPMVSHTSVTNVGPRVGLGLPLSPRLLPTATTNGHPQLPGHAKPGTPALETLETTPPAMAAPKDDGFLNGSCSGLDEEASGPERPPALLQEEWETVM
Description: Competition binding in COS-7 cell membranes with 125I-[Aib1,3,M]PTH(1-15)NH2 tracer. The following applies: COS-7 membranes cotransfected with negative-dominant Gαs, read-out: PTHR-delNT (COS-7) IC50. The protocol: PTHR-delNt is a derivative of the human PTHR that is deleted for most (Ala^24-Arg^181) of the amino-terminal extracellular domain (Shimizu, M., et al. (2001) Endocrinology 142:3068-3074). This PTHR construct was expressed in COS-7 cells via transient DNA transfection. For cAMP assays, the cells were transfected in 24-well plates using 0.2 μg of plasmid DNA and 0.6 μl of Fugene-6 reagent (Roche Diagnostics, Indianapolis Ind.) per well, and assays were performed on the intact cells three to four days after transfection. For binding assays, cell membranes were prepared from transfected COS-7 cells. To increase the maximal binding of ^125I-[Aib^1,3,M]PTH(1-15)NH2 to PTHR-delNt in these membranes, the cells were cotransfected with a negative dominant mutant Gαs protein (Gαs^ND). This mutant Gαs subunit is thought to couple to cognate receptors, and thus stabilize high affinity receptor conformations, more efficiently than does wild-type Gαs, without increasing basal cAMP levels (Berlot, C. H. (2002) J Biol Chem 277:21080-5). A precursor of this mutant Gαs, Gαs(α3β5), was recently used to increase binding of ^125I-[Aib^1,3,M]PTH(1-15)NH2 to PTHR-delNt in COS-7 cell membranes (Dean, T., (2006) Mol Endocrinol 20:931-942). Gαs^ND, which contains the same five amino acid replacement of corresponding Gαi residues in the α3β5 loop as Gαs(α3β5), plus the point mutations of Gly^226 to Ala, which increases affinity for Gβ/γ, and Ala^366 to Ser, which decreases affinity for GDP, yields approximately two-fold higher levels of specific binding of ^125I-[Aib^1,3,M]PTH(1-15)NH2 than does Gαs(α3β5) (data not shown). For the current membrane preparations, COS-7 cells were co-transfected in six-well plates using 1 μg of each plasmid DNA encoding PTHR-delNt and Gαs^ND, and 6 μl of Fugene-6 reagent (Roche Diagnostics, Indianapolis Ind.) per well. Cells were harvested three days after transfection, and membranes were prepared as described (Dean, T., et al. (2006) Mol Endocrinol 20:931-942).
Receptor binding—Binding to the wild-type human PTHR in intact HKRK-B7 cells and ROS 17/2.8 cells was assessed using ^125I-PTH(1-34) as a tracer radioligand, as described (Shimizu, M., (2001) Endocrinology 142:3068-3074). In brief, the cells in 24-well plates (about 500,000 cells per well) were incubated in binding buffer containing radioligand (about 100,000 cpm per well) with or without unlabeled peptide ligand (3×10^−9 to 1×10^−5 M) for four hours at 15° C. The binding mixture was then removed by aspiration, the cells were rinsed three times with binding buffer, lysed in 1 M NaOH, and the entire lysate was counted for gamma-irradiation in a gamma counter. Binding to PTHR-delNt in COS-7 cell membranes was assessed in 96-well, vacuum filtration plates (Multiscreen-Durapore HV, […] membranes, Millipore Corp., Millford, Mass.) using ^125I-[Aib^1,3,M]PTH(1-15)NH2 as a tracer radioligand, as described (Dean, T., (2006) Mol Endocrinol 20:931-942). In brief, cell membranes (20 μg/well) were incubated in membrane binding buffer containing radioligand (30,000 cpm/well) with or without unlabeled peptide ligand (3×10^−9 to 1×10^−5 M) for 90 minutes at 21° C. The plates were then subject to rapid vacuum filtration, the filters were washed once with buffer, detached from the plate and counted for gamma-irradiation in a gamma counter. Non-specific binding was defined as the binding observed in the presence of 1×10^−6 M PTH(1-31)NH2 for HKRK-B7 and ROS 17/2.8 cells, and 1×10^−6 M [Aib^1,3,M]PTH(1-15)NH2 for PTHR-delNt. Specifically bound radioactivity was calculated as a percentage of the radioactivity specifically bound in the absence of competing ligand. […]

Data set [1] is described as follows: Circular dichroism spectroscopy, helical residues per peptide chain. The data set is classed as physicochemical. The conditions noted are these: calculated from [θ]222. The protocol: Circular Dichroism—CD spectra were obtained on a JASCO J-600 spectropolarimeter at 20° C. Four spectra were averaged and the data smoothed by the JASCO software. The instrument was calibrated with ammonium (+)-10-camphorsulfonate. Peptide concentrations were verified from the absorption at 280 nm, using an extinction coefficient of 5700 M^−1 for the single tryptophan. Data are expressed as the number of helical residues per peptide chain, as calculated from −[θ]222×30/28,000, where [θ]222 is the mean residue elipticity ([θ]) at 222 nm, as was described previously (Barbier, J. R., et al. (2005) J Biol Chem. 280:23771-23777).

Where [2] appears, read: [Ala1,Arg19]hPTH(1-31)NH2 analogs.

Several values for one entry are separate records, joined by “and”; a condition that tells them apart may be missing. Equal entries are not always repeated. Where two headings read alike, the source gives them in different places. Where a SMILES comes first, the peptide text is derived from it. Where no end group is shown, it is not given here. [ ]: non-standard residue; d: D form. hArg = N=C(N)NCCCC[C@H](N)C(=O)O; Cha = N[C@@H](CC1CCCCC1)C(=O)O; Nle = CCCC[C@H](N)C(=O)O; Aib = CC(C)(N)C(=O)O

As to `CC[C@H](C)[C@H](NC(=O)[C@H](CCC(=O)O)NC(=O)[C@H](CO)NC(=O)[C@@H](NC(=O)[C@H](C)N)C(C)C)C(=O)N[C@@H](CCC(N)=O)C(=O)N[C@@H](CC(C)C)C(=O)N[C@@H](CCSC)C(=O)N[C@@H](Cc1c[nH]cn1)C(=O)N[C@@H](CC(N)=O)C(=O)N[C@@H](CC(C)C)C(=O)NCC(=O)N[C@@H](CCCCN)C(=O)N[C@@H](Cc1c[nH]cn1)C(=O)N[C@@H](CC(C)C)C(=O)N[C@@H](CC(N)=O)C(=O)N[C@@H](CC1CCCCC1)C(=O)N[C@@H](CCSC)C(=O)N[C@@H](CCCNC(=N)N)C(=O)N[C@@H](CCCNC(=N)N)C(=O)N[C@H](C(=O)N[C@@H](CCC(=O)O)C(=O)N[C@@H](Cc1c[nH]c2ccccc12)C(=O)N[C@@H](CC(C)C)C(=O)N[C@@H](CCCNC(=N)N)C(=O)N[C@@H](CCCCN)C(=O)N[C@@H](CCCCN)C(=O)N[C@@H](CC(C)C)C(=O)N[C@@H](CCC(N)=O)C(=O)N[C@@H](CC(=O)O)C(=O)N[C@H](C(N)=O)C(C)C)C(C)C` [Ser^17→Cha] (H-AVSEIQLMHNLGKHLN[Cha]MRRVEWLRKKLQDV-NH2; N-terminus assumed), the IC50 on PTHR-delNt (setting [2]) was found to be 179 ± 41 nM. In data set [1] (setting [2]), the CD helical residues was 9. On to “SVSEIQLMHNLGKHLNSMERVEWLRKKLQAV-NH2 [Asp^30→Ala]”, for which the IC50 at PTHR-delNt (hPTH(1-31)NH2 analogs) was 1540 nM. The CD helical residues in data set [1] (hPTH(1-31)NH2 analogs) is recorded as 10.

Turning to `CCCC[C@H](NC(=O)[C@H](CCC(=O)O)NC(=O)[C@H](CCSC)NC(=O)[C@H](CO)NC(=O)[C@H](CC(N)=O)NC(=O)[C@H](CC(C)C)NC(=O)[C@H](Cc1c[nH]cn1)NC(=O)[C@H](CCCCN)NC(=O)CNC(=O)[C@H](CC(C)C)NC(=O)[C@H](CC(N)=O)NC(=O)[C@H](Cc1c[nH]cn1)NC(=O)[C@H](CCSC)NC(=O)[C@H](CC(C)C)NC(=O)[C@H](CCC(N)=O)NC(=O)[C@@H](NC(=O)[C@H](CCC(=O)O)NC(=O)[C@H](CO)NC(=O)[C@@H](NC(=O)[C@@H](N)CO)C(C)C)[C@@H](C)CC)C(=O)N[C@H](C(=O)N[C@@H](CCC(=O)O)C(=O)N[C@@H](Cc1c[nH]c2ccccc12)C(=O)N[C@@H](CC(C)C)C(=O)N[C@@H](CCCNC(=N)N)C(=O)N[C@@H](CCCCN)C(=O)N[C@@H](CCCCN)C(=O)N[C@@H](CC(C)C)C(=O)N[C@@H](CCC(N)=O)C(=O)N[C@@H](CC(=O)O)C(=O)N[C@H](C(N)=O)C(C)C)C(C)C` [Arg^20→Nle] (H-SVSEIQLMHNLGKHLNSME[Nle]VEWLRKKLQDV-NH2; N-terminus assumed), on PTHR-delNt (hPTH(1-31)NH2 analogs), the IC50 is 10700 nM. Also, in data set [1] (hPTH(1-31)NH2 analogs), the CD helical residues is listed as 12. Turning to `CC[C@H](C)[C@H](NC(=O)[C@H](CCC(=O)O)NC(=O)[C@H](CO)NC(=O)[C@@H](NC(=O)[C@H](C)N)C(C)C)C(=O)N[C@@H](CCC(N)=O)C(=O)N[C@@H](CC(C)C)C(=O)N[C@@H](CCSC)C(=O)N[C@@H](Cc1c[nH]cn1)C(=O)N[C@@H](CC(N)=O)C(=O)N[C@@H](CC(C)C)C(=O)NCC(=O)N[C@@H](CCCCN)C(=O)N[C@@H](Cc1c[nH]cn1)C(=O)N[C@@H](CC(C)C)C(=O)N[C@@H](CC(N)=O)C(=O)N[C@@H](CO)C(=O)N[C@@H](CCSC)C(=O)N[C@@H](CCCNC(=N)N)C(=O)N[C@@H](CCCNC(=N)N)C(=O)N[C@H](C(=O)N[C@@H](CCC(=O)O)C(=O)N[C@@H](Cc1c[nH]c2ccccc12)C(=O)N[C@@H](CC(C)C)C(=O)N[C@@H](CCCNC(=N)N)C(=O)N[C@@H](CCCCN)C(=O)N[C@@H](CC1CCCCC1)C(=O)N[C@@H](CC(C)C)C(=O)N[C@@H](CCC(N)=O)C(=O)N[C@@H](CC(=O)O)C(=O)N[C@H](C(N)=O)C(C)C)C(C)C` [Lys^27→Cha] (H-AVSEIQLMHNLGKHLNSMRRVEWLRK[Cha]LQDV-NH2; N-terminus assumed), at PTHR-delNt (setting [2]), the IC50 is 629 ± 72 nM. Further, the CD helical residues in data set [1] (setting [2]) was 18.

In the case of “SVSEIQLMHNLGKHLNSAERVEWLRKKLQDV-NH2 [Met^18→Ala]”, on PTHR-delNt (hPTH(1-31)NH2 analogs), the IC50 amounted to 8800 nM. The CD helical residues in data set [1] (hPTH(1-31)NH2 analogs) is 10.

For `CC[C@H](C)[C@H](NC(=O)[C@H](CCC(=O)O)NC(=O)[C@H](CO)NC(=O)[C@@H](NC(=O)[C@H](C)N)C(C)C)C(=O)N[C@@H](CCC(N)=O)C(=O)N[C@@H](CC(C)C)C(=O)N[C@@H](CCSC)C(=O)N[C@@H](Cc1c[nH]cn1)C(=O)N[C@@H](CC(N)=O)C(=O)N[C@@H](CC(C)C)C(=O)NCC(=O)N[C@@H](CCCCN)C(=O)N[C@@H](Cc1c[nH]cn1)C(=O)N[C@@H](CC(C)C)C(=O)N[C@@H](CC(N)=O)C(=O)N[C@@H](CO)C(=O)N[C@@H](CCSC)C(=O)N[C@@H](CCCNC(=N)N)C(=O)N[C@@H](CCCNC(=N)N)C(=O)N[C@H](C(=O)N[C@@H](CCC(=O)O)C(=O)N[C@@H](Cc1c[nH]c2ccccc12)C(=O)N[C@@H](CC(C)C)C(=O)N[C@@H](CCCNC(=N)N)C(=O)N[C@@H](CCCCN)C(=O)N[C@@H](CCCCN)C(=O)N[C@@H](CC1CCCCC1)C(=O)N[C@@H](CCC(N)=O)C(=O)N[C@@H](CC(=O)O)C(=O)N[C@H](C(N)=O)C(C)C)C(C)C` [Leu^28→Cha] (H-AVSEIQLMHNLGKHLNSMRRVEWLRKK[Cha]QDV-NH2; N-terminus assumed), the IC50 on PTHR-delNt (setting [2]) is 226 ± 39 nM. Also, the CD helical residues in data set [1] (setting [2]) is listed as 8. As to “AVSEIQLMHNLGKHLNSMRRVEWLRKKLQDV-NH2 [[Ala^1,Arg^19]PTH(1-31)NH2]”, the IC50 at PTHR-delNt (setting [2]) is 400 nM and 397 nM.

As for `CCCC[C@H](NC(=O)[C@H](CC(C)C)NC(=O)[C@H](CCC(N)=O)NC(=O)[C@@H](NC(=O)[C@H](CCC(=O)O)NC(=O)C(C)(C)NC(=O)[C@@H](NC(=O)C(C)(C)N)C(C)C)[C@@H](C)CC)C(=O)N[C@@H](Cc1c[nH]cn1)C(=O)N[C@@H](CCC(N)=O)C(=O)N[C@@H](CCCCNC(=N)N)C(=O)N[C@@H](C)C(=O)N[C@@H](CCCCN)C(=O)N[C@@H](Cc1c[nH]c2ccccc12)C(=O)N[C@@H](Cc1ccc(O)cc1)C(N)=O` [[Aib^1,3,M]PTH(1-15), [Aib^1,3,Nle^8,Gln^10,homoarginine^11,Ala^12,Trp^14,Tyr^15]PTH(1-15)NH2, reference compound] (H-[Aib]V[Aib]EIQL[Nle]HQ[hArg]AKWY-NH2; N-terminus assumed), the IC50 on PTHR-delNt (hPTH(1-31)NH2 analogs) amounted to 2.2 ± 0.5 nM.

These data come from US8143374B2, “Polypeptide derivatives of parathyroid hormone (PTH)” (The General Hospital Corporation, priority 2006, dated 2012).
